Consider 22 compounds from ChEMBL document CHEMBL4665809, “Synthesis and biofilm inhibition studies of 2-(2-amino-6-arylpyrimidin-4-yl)quinazolin-4(3H)-ones” (Bioorg Med Chem Lett, 2020).

Series [1] deals with Staphylococcus aureus. Nature of the series: Inhibition of biofilm formation in methicillin-resistant Staphylococcus aureus ATCC 43300 incubated for 24 hrs by crystal violet staining based microtiter plate method. The class given is functional, organism-based. As to conditions: ATCC 43300, 24 h.
A further series deals with Acinetobacter baumannii. Nature of the series: Inhibition of biofilm formation in Acinetobacter baumannii at 100 uM incubated for 24 hrs by crystal violet staining based microtiter plate method. The class given is functional.
For series [2], the system named is Staphylococcus aureus. Nature of the series: Inhibition of biofilm formation in methicillin-resistant Staphylococcus aureus ATCC 43300 at 100 uM incubated for 24 hrs by crystal violet staining based microtiter plate method. Format: functional.
Series [3] deals with CCD-18Co. Nature of the series: Cytotoxicity against human CCD-18Co cells assessed as reduction in cell viability at 50 uM measured after 1 days by MTT assay relative to control. The class given is cell-based. The following applies: 24 h, time 1 day.
For series [4], the system named is CCD-18Co. Nature of the series: Cytotoxicity against human CCD-18Co cells assessed as reduction in cell viability at 12.5 uM measured after 1 days by MTT assay relative to control. The class given is cell-based. As to conditions: 24 h, time 1 day.
The test system of series [5] is CCD-18Co. Kind of series: Cytotoxicity against human CCD-18Co cells assessed as reduction in cell viability at 25 uM measured after 1 days by MTT assay relative to control. The following applies: 24 h, time 1 day. The class given is cell-based. On the technique in general: Tetrazolium assays rely on reduction of a dye to a coloured formazan, in cell work by metabolically active cells.

One may read the IC50 as the midpoint of a concentration-inhibition curve. A lower IC50 goes with higher potency. A word on the inhibition: it is the drop in the measured response relative to a control, in per cent. In the case of `CSc1ccc(-c2cc(-c3nc4ccccc4c(=O)[nH]3)nc(N)n2)cc1`, the half-maximal inhibitory concentration (IC50) with Staphylococcus aureus [1] turned out to be 22.4 µM. The figures for the inhibition at 100 µM with Acinetobacter baumannii and with Staphylococcus aureus [2] were less than 25% and more than 50%, respectively.
For `Nc1nc(-c2nc3ccccc3c(=O)[nH]2)cc(-c2cccc3ccccc23)n1`, the inhibition at 100 µM in the series with Acinetobacter baumannii was less than 25%.
Turning to `Nc1nc(-c2cccc(OCc3ccccc3)c2)cc(-c2nc3ccccc3c(=O)[nH]2)n1`, the inhibition at 100 µM with Acinetobacter baumannii is less than 25%.
In the series on Staphylococcus aureus [1], `COc1cccc(-c2cc(-c3nc4ccccc4c(=O)[nH]3)nc(N)n2)c1` displayed a half-maximal inhibitory concentration (IC50) of 84.8 µM. Moreover, the inhibition at 100 µM is less than 25% in the series on Acinetobacter baumannii and more than 50% in the series on Staphylococcus aureus [2].
In the series on Staphylococcus aureus [1], `Nc1nc(-c2cccc(Br)c2)cc(-c2nc3ccccc3c(=O)[nH]2)n1` registered an IC50 of 20.7 µM. Moreover, the Activity entry in the series on CCD-18Co [3] and in the series with CCD-18Co [4] was “Toxic” throughout. Moreover, the inhibition at 100 µM in the series with Acinetobacter baumannii is less than 25%; in the series on Staphylococcus aureus [2] it was more than 50%.
Compound `Nc1nc(-c2ccccc2)cc(-c2nc3ccccc3c(=O)[nH]2)n1` yielded an IC50 in the series with Staphylococcus aureus [1] of 34.4 µM. Further, the inhibition at 100 µM in the series with Acinetobacter baumannii was less than 25%; with Staphylococcus aureus [2], more than 50%.
Compound `COc1ccc(-c2cc(-c3nc4ccccc4c(=O)[nH]3)nc(N)n2)c(OC)c1` showed an IC50 in the series on Staphylococcus aureus [1] of 38.4 µM. Besides, the inhibition at 100 µM was less than 25% in the series with Acinetobacter baumannii and more than 50% in the series with Staphylococcus aureus [2].
In the series on Staphylococcus aureus [1], `Nc1nc(-c2nc3ccccc3c(=O)[nH]2)cc(-c2ccc(Cl)cc2Cl)n1` came in with a half-inhibitory concentration (IC50) of 42.7 µM. For the same compound, the inhibition at 100 µM is less than 25% in the series with Acinetobacter baumannii and more than 50% in the series on Staphylococcus aureus [2].
In the series with Staphylococcus aureus [1], `Nc1nc(-c2nc3ccccc3c(=O)[nH]2)cc(-c2ccco2)n1` came in with an IC50 of 56.9 µM. Moreover, the inhibition at 100 µM in the series on Acinetobacter baumannii was less than 25%; in the series on Staphylococcus aureus [2], more than 50%.
The like results for `COc1cc(OC)cc(-c2cc(-c3nc4ccccc4c(=O)[nH]3)nc(N)n2)c1` were, in that order, 50.5 µM, less than 25% and more than 50%.
In the series on Staphylococcus aureus [1], `Nc1nc(-c2ccc(C(F)(F)F)cc2)cc(-c2nc3ccccc3c(=O)[nH]2)n1` yielded a half-inhibitory concentration (IC50) of 86.5 µM. Further, the figures for the inhibition at 100 µM with Acinetobacter baumannii and in the series with Staphylococcus aureus [2] were less than 25% and more than 50%, respectively.
As for `COc1cc(OC)c(-c2cc(-c3nc4ccccc4c(=O)[nH]3)nc(N)n2)c(OC)c1`, in the series with Staphylococcus aureus [1], the IC50 was 21.2 µM. Further, the Activity entry in the series on CCD-18Co [3], in the series with CCD-18Co [5] and with CCD-18Co [4] was “Non-Toxic” in each case. Besides, the inhibition at 100 µM in the series on Acinetobacter baumannii was less than 25%; in the series with Staphylococcus aureus [2], more than 50%.
Turning to `COc1ccc(-c2cc(-c3nc4ccccc4c(=O)[nH]3)nc(N)n2)cc1OC`, in the series with Acinetobacter baumannii, the inhibition at 100 µM is less than 25%.
The compound `Nc1nc(-c2nc3ccccc3c(=O)[nH]2)cc(-c2cccs2)n1` showed an IC50 with Staphylococcus aureus [1] of 71 µM. The inhibition at 100 µM in the series with Acinetobacter baumannii is less than 25%; with Staphylococcus aureus [2] it was less than 50%.
For the compound `Nc1nc(-c2ccc(F)cc2)cc(-c2nc3ccccc3c(=O)[nH]2)n1`, the results for the inhibition at 100 µM with Acinetobacter baumannii and in the series with Staphylococcus aureus [2] were less than 25% and less than 50%, respectively.
In the case of `Nc1nc(-c2nc3ccccc3c(=O)[nH]2)cc(-c2ccccc2Cl)n1`, the IC50 in the series with Staphylococcus aureus [1] came out at 56.2 µM. The inhibition at 100 µM with Acinetobacter baumannii is less than 25%; in the series on Staphylococcus aureus [2], more than 50%.
`Nc1nc(-c2ccncc2)cc(-c2nc3ccccc3c(=O)[nH]2)n1`: the inhibition at 100 µM was less than 25% with Acinetobacter baumannii and less than 50% in the series on Staphylococcus aureus [2].
`COc1cc(-c2cc(-c3nc4ccccc4c(=O)[nH]3)nc(N)n2)cc(OC)c1OC` returned an inhibition at 100 µM with Acinetobacter baumannii of less than 25%.
`Nc1nc(-c2ccc(Cl)cc2)cc(-c2nc3ccccc3c(=O)[nH]2)n1`: the inhibition at 100 µM with Acinetobacter baumannii was less than 25%; with Staphylococcus aureus [2], less than 50%.
Consider `Nc1nc(-c2ccc(OCc3ccccc3)cc2)cc(-c2nc3ccccc3c(=O)[nH]2)n1`, for which the IC50 with Staphylococcus aureus [1] was found to be 37.3 µM. Also, the inhibition at 100 µM in the series with Acinetobacter baumannii is less than 25%; in the series with Staphylococcus aureus [2] it was more than 50%.
As for `Nc1nc(-c2ccc(Br)cc2)cc(-c2nc3ccccc3c(=O)[nH]2)n1`, the 50% inhibitory concentration (IC50) in the series with Staphylococcus aureus [1] amounted to 47.3 µM. In addition, the inhibition at 100 µM was less than 25% in the series on Acinetobacter baumannii and more than 50% in the series with Staphylococcus aureus [2].
Consider `Cc1ccc(-c2cc(-c3nc4ccccc4c(=O)[nH]3)nc(N)n2)cc1`, for which the inhibition at 100 µM in the series on Acinetobacter baumannii is less than 25%.
